Experiments:
[1] = target: T1, specific receptor of progesterone (Oryctolagus cuniculus, UniProt P06186); test: Hormonal receptor method: displacement of tritiated product R from rabbit uterus cytosol (relative binding affinity vs progesterone); settings: for RBA 2 hours / RBA 24 hours: relative affinity, tritiated product R; for RBA 2 hours: progesterone = 100, incubation at 0° C. for 2 hours; for RBA 24 hours: progesterone = 100, incubation at 0° C. for 24 hours
T1 construct: the uteri were removed and homogenized; from tissue; host or cells: rabbit uterus, cytosol (105,000 g supernatant), estradiol-treated impuberal rabbits
T1 sequence (P06186 1-930): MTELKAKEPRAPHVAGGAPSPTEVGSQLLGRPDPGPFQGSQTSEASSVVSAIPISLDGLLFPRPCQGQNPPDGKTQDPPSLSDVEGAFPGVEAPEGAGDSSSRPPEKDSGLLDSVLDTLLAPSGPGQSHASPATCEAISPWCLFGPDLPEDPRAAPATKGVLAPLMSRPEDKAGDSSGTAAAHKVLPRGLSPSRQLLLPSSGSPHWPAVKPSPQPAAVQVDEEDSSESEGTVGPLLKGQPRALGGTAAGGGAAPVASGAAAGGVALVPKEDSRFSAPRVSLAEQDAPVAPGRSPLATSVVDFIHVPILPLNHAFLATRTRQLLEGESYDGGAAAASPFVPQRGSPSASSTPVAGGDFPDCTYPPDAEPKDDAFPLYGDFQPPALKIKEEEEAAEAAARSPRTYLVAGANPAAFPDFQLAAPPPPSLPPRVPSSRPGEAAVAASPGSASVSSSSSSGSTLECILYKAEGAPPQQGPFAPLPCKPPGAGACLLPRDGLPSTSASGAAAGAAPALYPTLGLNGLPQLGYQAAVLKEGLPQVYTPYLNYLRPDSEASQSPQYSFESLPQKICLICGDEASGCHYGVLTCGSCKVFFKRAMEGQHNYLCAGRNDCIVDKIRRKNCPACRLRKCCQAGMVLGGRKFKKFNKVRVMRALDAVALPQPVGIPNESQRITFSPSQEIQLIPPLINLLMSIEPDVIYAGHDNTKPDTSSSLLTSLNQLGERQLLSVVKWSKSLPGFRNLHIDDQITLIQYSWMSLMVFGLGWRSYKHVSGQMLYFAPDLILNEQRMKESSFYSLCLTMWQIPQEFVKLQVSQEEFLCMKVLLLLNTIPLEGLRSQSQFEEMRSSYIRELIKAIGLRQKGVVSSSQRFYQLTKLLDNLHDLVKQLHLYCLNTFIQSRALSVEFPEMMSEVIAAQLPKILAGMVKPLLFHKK
Protocol: a) The progestomimetic activity of the products of Examples 1 and 2 was studied by the method of hormonal receptors described by RAYNAUD et al in "J. Ster. BIOCHEM" 1975, Vol. 6, 615 to 622 and in "Physiology and Genetics of Reproduction", 1975 part A p. 143 to 160. The technique was as follows: […] of estradiol were administered to impuberal rabbits per-cutaneously. Five days after this treatment, the animals were killed, the uteri were removed and homogenized in a 10 mM tromethamine, 0.25 M saccharose, HCl pH 7.4 buffer. The homogenate was centrifuged at 105,000 g for one hour and the supernatant liquid or cytosol was adjusted to have a dilution of 1/50 (weight/volume). Tubes with the same volume of cytosol were incubated at 0° C. for two hours with a fixed concentration of tritiated 17,21-dimethyl-19-nor- Δ^4,9 -pregandiene-3,20-dione, called hereafter tritiated product R, in the presence or not of an increasing concentration of radio-inert 17,21-dimethyl-19-nor-Δ^4,9 -pregnadiene-3,20-dione called hereafter cold product R, of progesterone or of product under test. After two hours and after 24 hours, the radioactivity of bound tritiated product R was determined by the technique of absorption with cabon-dextran (1.25%-0.625%).
Then the following was traced: the straight line parallel to the axis of the abscesses, of the coordinate [formula]
Bo being the maximum quantity of bound tritiated product R, measured in the incubate containing only tritiated product R, Bmin being the minimum quantity of bound tritiated product R (non-specific), measured in the incubate containing tritiated product R plus a large excess of cold product R (2500 10^-9 M), the curves representing the percentages of bound tritiated product [formula] as a function of the logarithm of the concentrations of added cold product.
The intersections of the straight line I50 and the curves allowed the values CP and CX to be determined. CP: concentration of cold progesterone which inhibited by 50% the fixing of the tritiated product R. CX: concentration of the product under test which inhibited by 50% the fixing of the tritiated product R.
The relative affinity of the product under test or RBA is given by the formula

[2] = tested on: impuberal rabbits; test: CLAUBERG test (lacy proliferation of the endometrium); format: in vivo, rabbit
Protocol: b) The progestomimetic activity of the product of Example 2 was determined by the CLAUBERG test. According to this test, groups of three impuberal rabbits were sensitized before-hand by the administration of estradiol sub-cutaneously for five days at a daily dose of 5 micrograms. Two days later, they were treated daily for five days with the medicament under study sub-cutaneously.
The product of Example 2 was used in solution in sesame oil containing 5% benzyl alcohol.

SMILES | affinity for the specific receptor of progesterone (conclusion in words) [1] | RBA 2 hours [1] | RBA 24 hours [1] | Mac Phail UNITS ([2]; 0.3 μg/rabbit/day sub-cutaneously for five days, estradiol-sensitized impuberal rabbits, sesame oil with 5% benzyl alcohol) [Mac Phail units] | Mac Phail UNITS ([2]; 1 μg/rabbit/day sub-cutaneously for five days, estradiol-sensitized impuberal rabbits, sesame oil with 5% benzyl alcohol) [Mac Phail units] | Mac Phail UNITS ([2]; 3 μg/rabbit/day sub-cutaneously for five days, estradiol-sensitized impuberal rabbits, sesame oil with 5% benzyl alcohol) [Mac Phail units] | progestomimetic activity (conclusion in words) ([2]; CLAUBERG test, sub-cutaneous, impuberal rabbits) | Mac Phail UNITS ([2]; daily dose of 10 micrograms, sub-cutaneously, impuberal rabbits) [Mac Phail units]
C[C@]12CC[C@H]3[C@@H](CCC4=CC(=O)CC[C@@H]43)[C@@H]1CC[C@@]21CCCC1=O [Example 1, Spiro (cyclopentane-1,17'β-Δ4'-estrene)-2,3'-dione] | very strong affinity | 312 | 1012 |  |  |  |  | 
C[C@]12CCC3=C4CCC(=O)C=C4CC[C@H]3[C@@H]1CC[C@@]21CCCC1=O [Example 2, spiro (cyclopentane-1,17'β -Δ4,9-estradiene)-2,3'-dione] | very strong affinity | 344 | 912 | 0.5 | 1.8 | 2.8 | very strong progestomimetic activity | 2.8

Reference: US5084450A, “Novel steroids” (Roussel Uclaf, priority 1990, dated 1992)
